# Measurements as given in ChEMBL document CHEMBL6071202, “Design, Synthesis, and Biological Evaluation of 3-Amino-pyrazine-2-carboxamide Derivatives as Novel FGFR Inhibitors” (ACS Med Chem Lett, 2024).
# Assays:
# [1] = biological target: T1, Receptor-type tyrosine-protein kinase FLT3 (Homo sapiens, UniProt P36888); test: Inhibition of FLT3 (unknown origin) by immobilized metal ion affinity-based fluorescence polarization
# T1 sequence (P36888 whole entry): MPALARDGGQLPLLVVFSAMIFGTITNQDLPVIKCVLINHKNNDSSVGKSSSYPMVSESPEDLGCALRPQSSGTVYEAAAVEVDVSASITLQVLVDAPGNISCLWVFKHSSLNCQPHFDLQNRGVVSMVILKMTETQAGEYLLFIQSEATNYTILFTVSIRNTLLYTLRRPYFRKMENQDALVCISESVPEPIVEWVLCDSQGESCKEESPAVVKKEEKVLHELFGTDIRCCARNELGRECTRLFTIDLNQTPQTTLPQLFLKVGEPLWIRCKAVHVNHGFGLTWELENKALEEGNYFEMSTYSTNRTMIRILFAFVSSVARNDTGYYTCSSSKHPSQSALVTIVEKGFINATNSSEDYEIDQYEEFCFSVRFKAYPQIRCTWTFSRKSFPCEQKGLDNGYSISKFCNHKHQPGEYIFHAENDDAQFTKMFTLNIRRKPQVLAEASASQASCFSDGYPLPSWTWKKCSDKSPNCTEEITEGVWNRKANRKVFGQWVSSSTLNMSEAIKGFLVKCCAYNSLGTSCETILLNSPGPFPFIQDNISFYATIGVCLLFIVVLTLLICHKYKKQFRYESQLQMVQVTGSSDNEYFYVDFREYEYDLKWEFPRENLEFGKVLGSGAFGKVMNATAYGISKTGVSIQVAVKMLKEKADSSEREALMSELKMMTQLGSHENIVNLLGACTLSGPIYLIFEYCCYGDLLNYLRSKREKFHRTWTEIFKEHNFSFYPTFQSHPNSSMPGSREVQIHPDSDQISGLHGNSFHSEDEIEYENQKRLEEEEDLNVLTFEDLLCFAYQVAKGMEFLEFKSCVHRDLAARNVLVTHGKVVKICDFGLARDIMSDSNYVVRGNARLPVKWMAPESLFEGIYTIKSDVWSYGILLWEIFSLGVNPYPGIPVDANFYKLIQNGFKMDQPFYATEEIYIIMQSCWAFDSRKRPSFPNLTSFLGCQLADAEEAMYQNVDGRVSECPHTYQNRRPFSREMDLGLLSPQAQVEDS
# [2] = biological target: Fibroblast growth factor receptor 2 (Homo sapiens, UniProt P21802); test: Inhibition of FGFR2 (unknown origin)
# Sequence of Fibroblast growth factor receptor 2 (P21802 whole entry): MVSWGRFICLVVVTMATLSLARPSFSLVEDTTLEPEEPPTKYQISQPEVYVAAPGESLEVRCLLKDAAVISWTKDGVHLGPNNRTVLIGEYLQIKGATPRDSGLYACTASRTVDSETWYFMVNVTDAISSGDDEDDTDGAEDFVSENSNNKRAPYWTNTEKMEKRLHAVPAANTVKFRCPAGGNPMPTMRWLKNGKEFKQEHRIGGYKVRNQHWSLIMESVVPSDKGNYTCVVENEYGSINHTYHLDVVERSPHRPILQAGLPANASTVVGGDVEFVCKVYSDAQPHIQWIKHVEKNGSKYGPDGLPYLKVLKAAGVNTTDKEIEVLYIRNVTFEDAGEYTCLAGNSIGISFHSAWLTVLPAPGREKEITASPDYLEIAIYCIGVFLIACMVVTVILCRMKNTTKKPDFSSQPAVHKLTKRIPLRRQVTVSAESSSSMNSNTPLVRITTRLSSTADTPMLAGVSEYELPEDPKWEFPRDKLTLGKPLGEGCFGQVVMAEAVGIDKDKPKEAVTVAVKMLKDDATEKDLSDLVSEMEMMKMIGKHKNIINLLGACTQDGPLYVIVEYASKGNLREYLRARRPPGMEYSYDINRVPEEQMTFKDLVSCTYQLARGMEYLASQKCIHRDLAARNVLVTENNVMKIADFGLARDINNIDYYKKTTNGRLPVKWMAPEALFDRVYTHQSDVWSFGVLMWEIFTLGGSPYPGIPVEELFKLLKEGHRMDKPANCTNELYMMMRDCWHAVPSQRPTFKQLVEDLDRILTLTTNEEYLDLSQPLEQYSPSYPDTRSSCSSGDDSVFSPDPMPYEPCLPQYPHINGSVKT
compound,measurement,setting,value
Nc1ncc(-c2ccncc2)nc1Nc1ccc2[nH]ccc2c1 [AKN-028],IC50,[1],6 nM
same,IC50,[2],120 nM
